One data set has as its system A. baumannii (ATCC17978). Nature of the data set: 50% growth inhibitory concentration (IC50) determination assay, A. baumannii. The class given is cell-based. Conditions: Acinetobacter baumannii, growth inhibition, Iso-Sensitest broth, OD 600 nm over 16h, <0.098 = the detection limit. As to the method: (§1) The in vitro antimicrobial activity of the compounds against S. aureus (ATCC29213), K. pneumoniae (ATCC10031), and A. baumannii (ATCC17978), was determined according to the following procedure: The assay used a 10-points Iso-Sensitest broth medium to measure quantitatively the in vitro activity of the compounds against S. aureus ATCC29213, K. pneumoniae ATCC 10031, and A. baumannii ATCC17978. Stock compounds in DMSO were serially two-fold diluted (range from 50 to 0.097 μM final concentration) in 384 wells microtiter plates and inoculated with 49 μL the bacterial suspension in Iso-Sensitest broth medium to have a final cell concentration of ˜5×10^5 CFU/mL in a final volume/well of 50 μL/well. Microtiter plates were incubated at 35±2° C. Bacterial cell growth was determined with the measurement of optical density at λ=600 nm each 20 minutes over a time course of 16h. Growth inhibition was calculated during the logarithmic growth of the bacterial cells with determination of the concentration inhibiting 50% (IC50) of the growth. Compounds of the present invention were tested for their concentration inhibiting 50% (IC50). The data of IC50 over S. aureus (ATCC29213), K. pneumoniae (ATCC10031), and A. baumannii (ATCC17978) are illustrated in Table 4.

Data set [1] in a line: Lyophilisation solubility assay (LYSA). The class given is physicochemical. Conditions: thermodynamic from solid. As to the method: The solubility of compounds of present invention was assessed by LYSA assay. Samples were prepared in duplicate from 10 mM DMSO stock solutions ([…]) diluted in 30 μL pure DMSO. After evaporation of DMSO with a centrifugal vacuum evaporator, the residue was dissolved in 0.05 M phosphate buffer (150 μL, pH 6.5), which was stirred for one hour and shook for two hours. After one night, the solution was filtered using a microtiter filter plate. Then the filtrate and its 1/10 dilution were analyzed by HPLC-UV. In addition, a four-point calibration curve was prepared from the 10 mM stock solutions and used for the solubility determination of the compounds.

For another data set, the system named is S. aureus (ATCC29213). Nature of the data set: 50% growth inhibitory concentration (IC50) determination assay, S. aureus. It is filed as cell-based. Conditions: Staphylococcus aureus, growth inhibition, Iso-Sensitest broth, OD 600 nm over 16h, <0.098 = the detection limit. As to the method: as §1
For data set [2], the system named is K. pneumoniae (ATCC10031). As to the kind of experiment: 50% growth inhibitory concentration (IC50) determination assay, K. pneumoniae. It is filed as cell-based. The settings on record: Klebsiella pneumoniae, growth inhibition, Iso-Sensitest broth, OD 600 nm over 16h, <0.098 = the detection limit. As to the method: as §1
Where [3] appears, read: aqueous buffer, 0.05 M phosphate buffer, pH 6.5, HPLC-UV, <1.0 = the detection limit, read-out: Lysa.

The structures appear in SMILES notation. Values after ≈ are worked out from the molar mass of the structure shown. Like-named read-outs stand apart in the source and are kept apart here.

As usually defined, the IC50 is the concentration that gives 50% inhibition. Higher therefore signals weaker potency in that assay. For `CNc1cc(F)c(F)c2c1[nH]c1ncc(-c3cnc(OC)nc3)c(N3CCC4(C[C@@H]4N)C3)c12` (stereo in doubt) [Example 1.35, 4-[Trans-2-amino-5-azaspiro[2.4]heptan-5-yl]-5,6-difluoro-3-(2-methoxypyrimidin-5-yl)-N-methyl-9H-pyrido[2,3-b]indol-8-amine], the IC50 in the data set on A. baumannii (ATCC17978) was less than 98 nM; in the data set with S. aureus (ATCC29213), 184 nM; in data set [2], less than 98 nM. Further, the solubility thermodynamic in data set [1] (setting [3]) stood at 90 µg/mL (≈ 199 µM).

Turning to `CNc1cc(F)c(F)c2c1[nH]c1ncc(-c3cncc(C#N)c3)c(N3CCC(CN)C3)c12` (stereo not drawn) [Example 1.13, 5-[4-[3-(Aminomethyl)pyrrolidin-1-yl]-5,6-difluoro-8-(methylamino)-9H-pyrido[2,3-b]indol-3-yl]pyridine-3-carbonitrile], the figures for the half-maximal inhibitory concentration (IC50) (with A. baumannii (ATCC17978); in the data set with S. aureus (ATCC29213); in data set [2]) were 764 nM, 1500 nM and less than 98 nM, respectively. Besides, the solubility thermodynamic in data set [1] (setting [3]) came to 46 µg/mL (≈ 106 µM).

Take `CCNc1cc(F)c(F)c2c1[nH]c1ncc(-c3cnc(OC)nc3)c(N3CCC(CN)C3)c12` (stereo not drawn) [Example 1.08, 4-[3-(Aminomethyl)pyrrolidin-1-yl]-N-ethyl-5,6-difluoro-3-(2-methoxypyrimidin-5-yl)-9H-pyrido[2,3-b]indol-8-amine]: the figures for the IC50 (in the data set with A. baumannii (ATCC17978); with S. aureus (ATCC29213); in data set [2]) were 243 nM, 789 nM and less than 98 nM, respectively. Further, the solubility thermodynamic in data set [1] (setting [3]) was found to be 83 µg/mL (≈ 183 µM).

As for `CNc1cc(F)cc2c1[nH]c1ncc(-c3cnc(OC)nc3)c(C3(CN)CC3)c12` [Example 4.01, 4-(1-(Aminomethyl)cyclopropyl)-6-fluoro-3-(2-methoxypyrimidin-5-yl)-N-methyl-9H-pyrido[2,3-b]indol-8-amine], the results for the IC50 (with A. baumannii (ATCC17978); in the data set on S. aureus (ATCC29213); in data set [2]) were 847 nM, 631 nM and less than 98 nM, respectively. Moreover, in data set [1] (setting [3]), the solubility thermodynamic was greater than 575 µg/mL.

Turning to `CNc1cc(F)c(F)c2c1[nH]c1ncc(-c3cncc(C#N)c3)c(N3CC4CC4(CN)C3)c12` (stereo not drawn) [Example 1.32, 5-[4-[1-(Aminomethyl)-3-azabicyclo[3.1.0]hexan-3-yl]-5,6-difluoro-8-(methylamino)-9H-pyrido[2,3-b]indol-3-yl]pyridine-3-carbonitrile], the 50% inhibitory concentration (IC50) was 472 nM in the data set with A. baumannii (ATCC17978), 1240 nM with S. aureus (ATCC29213) and less than 98 nM in data set [2]. The solubility thermodynamic in data set [1] (setting [3]) worked out at 10 µg/mL (≈ 22.4 µM).

For `CNc1cc(F)c(F)c2c1[nH]c1ncc(-c3cnc(OC)nc3)c(N3C4CNCC3C4)c12` [Example 1.57, 4-(3,6-Diazabicyclo[3.1.1]heptan-6-yl)-5,6-difluoro-3-(2-methoxypyrimidin-5-yl)-N-methyl-9H-pyrido[2,3-b]indol-8-amine], the IC50 in the data set with A. baumannii (ATCC17978) is 314 nM; with S. aureus (ATCC29213), 286 nM; in data set [2], less than 98 nM. The molecule further came in with a solubility thermodynamic in data set [1] (pH 6.5, aqueous buffer) of 91 µg/mL (≈ 208 µM).

Turning to `CCNc1cc(F)c(F)c2c1[nH]c1ncc(-c3cnc(OC)nc3)c(N3CC[C@@H](N)C3)c12` [Example 1.18, 4-[(3R)-3-Aminopyrrolidin-1-yl]-N-ethyl-5,6-difluoro-3-(2-methoxypyrimidin-5-yl)-9H-pyrido[2,3-b]indol-8-amine], the 50% inhibitory concentration (IC50) in the data set with A. baumannii (ATCC17978) is 249 nM; in the data set with S. aureus (ATCC29213), 567 nM; in data set [2], less than 98 nM. Further, the solubility thermodynamic in data set [1] (setting [3]) amounted to 195 µg/mL (≈ 444 µM).

As for `CCNc1cc(F)c(F)c2c1[nH]c1ncc(-c3cnc(OC)nc3)c(N3CCC[C@@H](CN)C3)c12` [Example 1.53, (S)-4-(3-(Aminomethyl)piperidin-1-yl)-N-ethyl-5,6-difluoro-3-(2-methoxypyrimidin-5-yl)-9H-pyrido[2,3-b]indol-8-amine], the IC50 in the data set with A. baumannii (ATCC17978) was less than 98 nM; in the data set on S. aureus (ATCC29213), 394 nM; in data set [2], less than 98 nM. Also, the solubility thermodynamic in data set [1] (setting [3]) came to 241 µg/mL (≈ 515 µM).

In the case of `CNc1cc(F)c(F)c2c1[nH]c1ncc(-c3cnc(OC)nc3)c(N3CC4CC4(CN)C3)c12` (stereo not drawn) [Example 1.27, 4-[1-(Aminomethyl)-3-azabicyclo[3.1.0]hexan-3-yl]-5,6-difluoro-3-(2-methoxypyrimidin-5-yl)-N-methyl-9H-pyrido[2,3-b]indol-8-amine], the 50% inhibitory concentration (IC50) with A. baumannii (ATCC17978) was 340 nM; in the data set on S. aureus (ATCC29213), 522 nM; in data set [2], less than 98 nM. In addition, in data set [1] (setting [3]), the solubility thermodynamic was 74 µg/mL (≈ 164 µM).

As to `CNc1cc(F)c(F)c2c1[nH]c1ncc(-c3cncc(C#N)c3)c(N3CCCC(F)(CN)C3)c12` (stereo not drawn) [Example 1.54, 5-[4-[3-(Aminomethyl)-3-fluoro-1-piperidyl]-5,6-difluoro-8-(methylamino)-9H-pyrido[2,3-b]indol-3-yl]pyridine-3-carbonitrile], the values for the IC50 (in the data set on A. baumannii (ATCC17978); in the data set on S. aureus (ATCC29213); in data set [2]) were less than 98 nM, 477 nM and less than 98 nM, respectively. Also, the solubility thermodynamic in data set [1] (setting [3]) stood at 39 µg/mL (≈ 83.8 µM).

On to `CNc1cc(F)c(F)c2c1[nH]c1ncc(-c3cnc(OC)nc3)c(N3CCC4(C[C@H]4N)C3)c12` (stereo in doubt) [Example 1.34, 4-[Cis-2-amino-5-azaspiro[2.4]heptan-5-yl]-5,6-difluoro-3-(2-methoxypyrimidin-5-yl)-N-methyl-9H-pyrido[2,3-b]indol-8-amine], for which the IC50 with A. baumannii (ATCC17978) is 157 nM; in the data set on S. aureus (ATCC29213), 603 nM; in data set [2] it was less than 98 nM. Further, in data set [1] (setting [3]), the solubility thermodynamic amounted to 93 µg/mL (≈ 206 µM).

Turning to `CNc1cc(F)c(F)c2c1[nH]c1ncc(-c3cncc(C#N)c3)c(N3CC(CN)C(F)(F)C3)c12` (stereo not drawn) [Example 3.04, 5-[4-[4-(aminomethyl)-3,3-difluoro-pyrrolidin-1-yl]-5,6-difluoro-8-(methylamino)-9H-pyrido[2,3-b]indol-3-yl]pyridine-3-carbonitrile], the IC50 with A. baumannii (ATCC17978) is 485 nM; in the data set with S. aureus (ATCC29213), 649 nM; in data set [2] it was less than 98 nM. Further, the solubility thermodynamic in data set [1] (setting [3]) was 16 µg/mL (≈ 34.1 µM).

In the case of `CCNc1cc(C(F)(F)F)cc2c1[nH]c1ncc(-c3cncc(C#N)c3)c(N3CCC(N)C3)c12` (stereo not drawn) [Example 1.20, 5-[4-(3-Aminopyrrolidin-1-yl)-8-(ethylamino)-6-(trifluoromethyl)-9H-pyrido[2,3-b]indol-3-yl]pyridine-3-carbonitrile], the IC50 in the data set on A. baumannii (ATCC17978) is less than 98 nM; in the data set on S. aureus (ATCC29213), 1270 nM; in data set [2] it was less than 98 nM. Also, the solubility thermodynamic in data set [1] (setting [3]) was found to be 124 µg/mL (≈ 266 µM).

Turning to `CNc1cc(F)c(F)c2c1[nH]c1ncc(-c3cnc(C4(C(=O)O)CC4)nc3)c(N(C)C)c12` [Example 2.02, 1-[5-[4-(dimethylamino)-5,6-difluoro-8-(methylamino)-9H-pyrido[2,3-b]indol-3-yl]pyrimidin-2-yl]cyclopropanecarboxylic acid], the figures for the IC50 (in the data set on A. baumannii (ATCC17978); with S. aureus (ATCC29213); in data set [2]) were less than 98 nM, 474 nM and 391 nM, respectively. In addition, the solubility thermodynamic in data set [1] (setting [3]) came to 160 µg/mL (≈ 365 µM).

Regarding `CCNc1cc(F)c(F)c2c1[nH]c1ncc(-c3cncc(C#N)c3)c(N3CCC(CN)C3)c12` (stereo not drawn) [Example 1.07, 5-[4-[3-(Aminomethyl)pyrrolidin-1-yl]-8-(ethylamino)-5,6-difluoro-9H-pyrido[2,3-b]indol-3-yl]pyridine-3-carbonitrile], the IC50 with A. baumannii (ATCC17978) is 110 nM; with S. aureus (ATCC29213), 1090 nM; in data set [2], less than 98 nM. Besides, in data set [1] (setting [3]), the solubility thermodynamic was found to be 39 µg/mL (≈ 87.2 µM).

Consider `CCNc1cc(F)cc2c1[nH]c1ncc(-c3cnc(OC)nc3)c(N3CCC[C@@H](CN)C3)c12` [Example 1.52, (S)-4-(3-(Aminomethyl)piperidin-1-yl)-N-ethyl-6-fluoro-3-(2-methoxypyrimidin-5-yl)-9H-pyrido[2,3-b]indol-8-amine], for which the values for the IC50 (with A. baumannii (ATCC17978); with S. aureus (ATCC29213); in data set [2]) were less than 98 nM, 993 nM and less than 98 nM, respectively.

`CNc1cc(F)c(F)c2c1[nH]c1ncc(-c3cncc(C#N)c3)c(N3CCC4(CCC4N)C3)c12` (stereo not drawn) [Example 1.49, 5-(4-(1-Amino-6-azaspiro[3.4]octan-6-yl)-5,6-difluoro-8-(methylamino)-9H-pyrido[2,3-b]indol-3-yl)nicotinonitrile]: the values for the IC50 (with A. baumannii (ATCC17978); in the data set with S. aureus (ATCC29213); in data set [2]) were 143 nM, 1320 nM and less than 98 nM, respectively.

Take `CCNc1cc(F)cc2c1[nH]c1ncc(-c3cncc(C#N)c3)c(N3CCC4(C[C@H]4N)C3)c12` (stereo in doubt) [Example 1.11, 5-[8-(Ethylamino)-6-fluoro-4-[cis-2-amino-5-azaspiro[2.4]heptan-5-yl]-9H-pyrido[2,3-b]indol-3-yl]pyridine-3-carbonitrile]: the IC50 in the data set on A. baumannii (ATCC17978) was less than 98 nM; with S. aureus (ATCC29213), 863 nM; in data set [2], less than 98 nM.

The values above are taken from US20210309657A1, “TRICYCLIC COMPOUNDS FOR THE TREATMENT AND PROPHYLAXIS OF BACTERIAL INFECTION” (Hoffmann-La Roche Inc., priority 2018, published 2021).
